In one experiment the test system is Ba/F3 EGFR del19. As to the kind of experiment: CellTiter-Glo cell viability, Ba/F3 EGFR del19. To be noted: 72 hours. Format: cell-based. The method, then:
An experiment to measure the activity of the compounds of the present invention against the mutant Ba/F3 EGFR cell line was performed as follows using the CellTiter-Glo system sold by Promega. The CellTiter-Glo assay is a method to confirm the cell viability by measuring ATP present in cells in cell culture. For the Ba/F3 EGFR del19, Ba/F3 EGFR del19/T790M, Ba/F3 del19/T790M/C797S mutant cell line, a cell line provided by Crown Bioscience was purchased and used. The Ba/F3 EGFR del19, Ba/F3 EGFR del19/T790M, Ba/F3 del19/T790M/C797S mutant cell line was cultured in RPMI containing 10% FBS and 1% penicillin-streptomycin with 1 μg of puromycin in an incubator at 37° C. and 5% CO2.
(§1) Analysis of the inhibitory ability effect of the compounds against EGFR was conducted according to the following analysis reaction recipe.
(§2) 2500 cells/90 μL were passaged and cultured in a 96-well cell culture plate, and after 24 hours, treated with the compound represented by Formula 1 at a concentration of 0, 0.01, 0.03, 0.1, 0.3, 1, 3, and 10 (μM). After reaction for 72 hours, the plate treated with the compound was left at room temperature for 30 minutes, then further treated with 100 μl of reagent, and shaken at room temperature for 10 minutes. Finally, the ratio of fluorescence values at 570 nm was obtained using the equipment to quantitatively measure and confirmed the inhibitory ability of the compounds. The measurement values measured at eight compound concentrations were analyzed using the Prism program (version 5.01, Graphpad Software, Inc.), and the IC50 value, which is an indicator of the inhibitory ability of the compound, was calculated.
Background: In ATP-based viability assays light output follows the ATP content of the culture.

Experiment [1] concerns Ba/F3 EGFR L858R/T790M/C797S. As to the kind of experiment: CellTiter-Glo cell viability, Ba/F3 EGFR L858R/T790M/C797S. The experiment is classed as cell-based. To be noted: 72 hours. The method, then:
An experiment to measure the activity of the compounds of the present invention against the mutant Ba/F3 EGFR cell line was performed as follows using the CellTiter-Glo system sold by Promega. The CellTiter-Glo assay is a method to confirm the cell viability by measuring ATP present in cells in cell culture. The Ba/F3 EGFR L858R, Ba/F3 EGFR L858R/T790M, Ba/F3 EGFR L858R/T790M/C797S mutant cell line was used. The Ba/F3 EGFR L858R, Ba/F3 EGFR L858R/T790M, and Ba/F3 EGFR L858R/T790M/C797S mutant cell lines was cultured in RPMI containing 10% FBS and 1% penicillin-streptomycin with 1 μg of puromycin in an incubator at 37° C. and 5% CO2.
as §1
as §2, with “μl” for “μL”

In the case of `COc1cc(N2CCC(N3CCN(C)CC3)CC2)ccc1Nc1ncc(Cl)c(Nc2cccc3c2N(S(C)(=O)=O)CC3)n1` [Example 2, 5-chloro-N2-(2-methoxy-4-(4-(4-methylpiperazin-1-yl)piperidin-1-yl)phenyl)-N4-(1-(methylsulfonyl)indolin-7-yl)pyrimidine-2,4-diamine], the figures for the IC50 (with Ba/F3 EGFR del19; in experiment [1]) were < 30 nM and < 100 nM, respectively.
As for `COc1cc(N2CCC(N3CCN(C)CC3)CC2)ccc1Nc1ncc(Cl)c(Nc2cccc3c2N(S(C)(=O)=O)CCC3)n1` [Example 5, 5-chloro-N2-(2-methoxy-4-(4-(4-methylpiperazin-1-yl)piperidin-1-yl)phenyl)-N4-(1-(methylsulfonyl)-1,2,3,4-tetrahydroquinolin-8-yl)pyrimidine-2,4-diamine], the IC50 (in general, the concentration needed to halve the response being measured) in the experiment with Ba/F3 EGFR del19 is < 30 nM.

For the origin of these results see patent US20240352000A1, “NOVEL PYRIMIDINE-2,4-DIAMINE DERIVATIVES, PREPARATION METHOD THEREFOR, AND PHARMACEUTICAL COMPOSITION CONTAINING SAME AS ACTIVE INGREDIENT FOR PREVENTION OR TREATMENT OF CANCER” (KOREA RESEARCH INSTITUTE OF CHEMICAL TECHNOLOGY, priority 2021, published 2024).
